Test: Pharmacokinetics of aprepitant emulsion vs fosaprepitant solution, intravenous
Assay type: in vivo, male Sprague-Dawley rats
Conditions: rat, equivalent to 14 mg/kg aprepitant
Description: The pharmacokinetics of an aprepitant emulsion prepared according to Example 1 was determined. Two groups of six male Sprague-Dawley rats each were injected intravenously with, respectively, fosaprepitant in solution or aprepitant emulsion prepared according to Example 1. All drugs were administered at an effective concentration equivalent to 14 mg/kg aprepitant. Blood from all rats was collected at the appropriate time intervals and processed to plasma by centrifugation. Plasma samples were analyzed by LC-MS/MS for aprepitant and fosaprepitant, as appropriate. A plasma concentration versus time curve of aprepitant for the emulsion described in Example 1 and for fosaprepitant is presented in FIG. 2 (fosaprepitant in solution, ●; aprepitant emulsion, ▴). The curves indicate the initial aprepitant level reached immediately after injection of the aprepitant emulsion was almost 3 times higher than the initial aprepitant level reached immediately after injection of the fosaprepitant solution.

C[C@@H](O[C@H]1OCCN(Cc2nc(O)n(P(=O)(O)O)n2)[C@H]1c1ccc(F)cc1)c1cc(C(F)(F)F)cc(C(F)(F)F)c1 [fosaprepitant]
Plasma levels of aprepitant by the 3-hour time point, emulsion vs fosaprepitant solution: essentially the same

Reference: patent US12290520B2, “Methods of use of emulsion formulations of aprepitant” (Heron Therapeutics, Inc., priority 2014, dated 2025)
